The record followed here is patent US20260276656A1, “GUT MICROBIOTA-RELATED METHODS FOR TREATING DEMENTIA AND AGE-DEPENDENT COGNITIVE DECLINE” (Albert-Ludwigs-Universitat Freiburg, priority 2019, published 2026).

For one assay, the system named is C57BL/6J mice. The assay can be described thus: Novel object recognition (NOR) test (recognition memory). The assay is classed as in vivo, mouse. Particulars: for recognition memory (Novel Object Recognition test): systemic (intraperitoneal) injection, FIG. 11 right; for NOR test performance: 5 mg/kg i.p. 1 h before. The procedure: In order to acutely deplete the gut microbiota, 15-16 months old SPF males were treated via oral gavage with a mixture of antibiotics (ABX), containing Cefoxitin (Santa Cruz Biotechnology), Gentamicin (Sigma-Aldrich) Metronidazole (Sigma-Aldrich), and Vancomycin (Hikma-pharma), each 10 mg/kg in sterile 1×PBS, for three consecutive days. On the fourth day, the mice were treated with one dose of Clindamycin hydrochloride (33.3 mg/kg) (Sigma-Aldrich). Fecal microbiota transplantations (FMTs) were started 24 h later. To deplete csf1-dependent cells in vivo, including microglia, mice were provided with CSF1R-inhibitor PLX5622 (Plexxicon Inc.) mixed into AIN-76A standard chow at 1200 mg/kg (Research Diets Inc.) ad libitum. Respective controls received AIN-76A standard chow. Mice were injected with 5 mg/kg δ-valerobetaine (MCAT, Germany) 1 h before behavioral testing.
For microbiota depletion studies, SPF mice were treated with 1 mg/ml of ampicillin (Auromedics), neomycin sulfate (Fisher), streptomycin (Sigma) and 0.5 mg/ml of vancomycin (Sagent) in the drinking water for 4-5 weeks (Khosravi et al., 2014). These mice were recolonized via FMT, which was achieved by oral gavage of a faecal slurry. Recipient mice had the food removed from the cage for 2 h prior to FMT. The faecal slurry was obtained by pooling faecal pellets from 8-14 donor mice. The pellets were weighed and resuspended by vortexing for 1 min in 1 mL PBS per 300 mg of faeces. After pelleting larger particles by centrifugation at 500×g for 5 min, the supernatant was collected for FMT. Each recipient mouse received 150 μl of faecal slurry by oral gavage. The remaining slurry was stored at −80° C. for 16S rRNA sequencing. Following FMT, the cages of recipient mice were replenished with dirty bedding and fresh faecal pellets from donor mice once and twice a week, respectively. Faecal pellets for 16S rRNA sequencing were collected the day before FMT and at the end of the experiment and were stored at −80° C. for DNA extraction. For re-colonization of ABX treated mice, FMTs from 8 weeks old or 15-16 months old males were undergone. Fresh fecal pellets are collected under a sterile hood and directly thoroughly homogenized in 0.1% L-Cysteine hydrochloride monohydrate in 1×PBS in order to maintain anaerobic microbes. The homogenates were spun down for 1 min, 200 g at 4° C. and the turbid supernatant was used to orally and rectally gavage the recipient mice. The FMT was performed twice 72 h apart.
NNN-trimethyl-5-aminovalerate was dissolved in 0.9% NaCl and administered i.p. at a dose of 200 mg/kg in a volume of 10 ml/kg. As control the vehicle NaCl was injected.
Mice were tested 40 min after drug- or vehicle injection or 4 weeks after FMT. We first performed the training run for the Novel-object recognition test, followed by the T maze test and then 6 h after the training session mice were tested in the Novel object recognition test. Spatial working memory was tested using the continuous spontaneous alternation task in a T-maze as described previously (Spowart-Manning, L. et al). Briefly, animals were set into the base of a T-maze and allowed to explore a randomly assigned T-maze arm until it returned to the base arm. Subsequently, the blocked arm was opened, and the animal was allowed to explore the complete maze. Once one arm of the T-maze was entered, the other arm was blocked until the animal returned to the base arm. Then, the exit of the base arm was blocked for 5 s and the animal was allowed to explore the maze again. The experiment was stopped after 14 free choice arm entries. Arm entries were scored as alternations if an animal chose the opposing arm compared to the arm visited immediately prior to the scored instance. The Novel Object Recognition (NOR) task was applied to evaluate recognition memory as published previously (Antunes, M. & Biala, G. et al). During the habituation phase, each mouse was allowed to explore two similar objects within a total exploration time of 20 s. […]

The subject of assay [1] is prelimbic or infralimbic cortex of the mPFC. Description: In vivo recordings from prelimbic or infralimbic cortex, spike-spike synchronization. Further details: species or system mouse. Particulars: systemic application (intraperitoneally); n=9 mice; FIG. 8. Here is the method: C57BL/6J mice aged 10-11 weeks were anesthetized with isofluorane (induction: 3%, maintenance approximately 1.5%). Buprenorphin (0.05-0.1 mg/kg body weight) and Carprofen (4-5 mg/kg body weight) were injected for analgesia. During implantation, the body temperature was maintained with a heating pad. The skin was incised from the cerebellum to the nose and the bone cleaned with 3% H2O2. Ground and reference screws (1 mm diameter) were inserted anterior to the lambdoid suture. A third stabilizing screw was inserted on the left parietal bone. A microdrive loaded with 8 tetrodes made from tungsten wire (California Fine Wire Company) was inserted in the right prefrontal cortex at the coordinates AP+1.9, ML 0.4, DV−1.2 (from brain surface). The craniotomy was protected with vaseline and the microdrive fixed to the skull using dental cement. After the surgery, the mice were injected with buprenorphin and carprofen subcutaneously for 48 h hours and housed individually.
Local field potential were recorded with a wireless amplifier system (W4, Multichannel Systems) 2-21 days after surgery at a sampling rate of 2 kHz or with a wired recording system (RHD2000, Intan Technologies, sampling rate 10 kHz) on freely moving mice. Single-unit activity was recorded at 20-30 kHz using a 32-channel amplifier system (RHD2000, Intan Technologies). […]

Regarding `C[N+](C)(C)CCCCC(=O)[O-]` [NNN-trimethyl-5-aminovalerate, 5-(trimethylammonio) pentanoate], the “NOR: improvement in learning and memory after FMT from young mice” value with C57BL/6J mice (old mice (15-16 months) +ABX+yFMT, 5 mg/kg i.p. 1 h before testing, FIG. 10G-H) is given as “abolished”. In addition, the “recognition memory (Novel Object Recognition test)” value with C57BL/6J mice (old mice (20-24-month-old)) is “no additional impairing effects”; in the assay with C57BL/6J mice (young mice (2-month-old), PBS control) it was “reduced”. Moreover, the NOR test performance entry is reported as “no additional deteriorating effect” in the assay with C57BL/6J mice (old mice that had received gut microbiota from old mice (old+ABX+oFMT), FIG. 10G-H) and “significantly worse” in the assay on C57BL/6J mice (young adult mice (8 weeks), versus vehicle, FIG. 10C-D). In addition, the spike-spike-synchronization entry in assay [1] is given as “enhanced”.
